# Source: patent US9149038B2, “4-amino-6-(heterocyclic)picolinates and 6-amino-2-(heterocyclic)pyrimidine-4-carboxylates and their use as herbicides” (Dow AgroSciences LLC, priority 2013, dated 2015)
# Where two headings read alike, the source gives them in different places.
# Tested on: Direct Seeded Rice and weed species
# Experiment: Postemergence herbicidal activity in direct seeded rice, visual rating after 20-22 days and probit GR20/GR50/GR80/GR90 (Table 14)
# Format: in vivo
# Conditions: for pest or weed control at 17.5 g/ha / pest or weed control at 35 g/ha / pest or weed control at 70 g/ha: post-emergence, 504 h, postemergence; for pest or weed control at 17.5 g/ha: 17.5 g ai/ha; for pest or weed control at 35 g/ha: 35 g ai/ha; for pest or weed control at 70 g/ha: 70 g ai/ha
# Source text: Herbicidal evaluations were made visually on a scale of 0 to 100 where 0 represents no activity and 100 represents complete plant death. Seeds or nutlets of the desired test plant species were planted in a soil matrix prepared by mixing a loam soil (43 percent silt, 19 percent clay, and 38 percent sand, with a pH of about 8.1 and an organic matter content of about 1.5 percent) and river sand in an 80 to 20 ratio. The soil matrix was contained in plastic pots with a surface area of 139.7 cm^2. When required to ensure good germination and healthy plants, a fungicide treatment and/or other chemical or physical treatment was applied. The plants were grown for 10-17 d in a greenhouse with an approximate 14-h photoperiod which was maintained at about 29° C. during the day and 26° C. during the night. Nutrients and water were added on a regular basis and supplemental lighting was provided with overhead metal halide 1000-Watt lamps as necessary. The plants were employed for testing when they reached the second or third true leaf stage. A weighed amount, determined by the highest rate to be tested, of each test compound was placed in 25 mL glass vials and dissolved in a volume of 97:3 v/v acetone-DMSO to obtain 12× stock solutions. […] The concentrated stock solutions were added to the spray solutions so that the final acetone and DMSO concentrations were 16.2% and 0.5%, respectively. Spray solutions were diluted to the appropriate final concentrations with the addition of 10 mL of an aqueous mixture of 1.5% (v/v) Agri-dex crop oil concentrate. The final spray solutions contained 1.25% (v/v) Agri-dex crop oil concentrate. Compound requirements are based upon a 12 mL application volume at a rate of 187 L/ha. Formulated compounds were applied to the plant material with an overhead Mandel track sprayer equipped with […] nozzles calibrated to deliver 187 L/ha over an application area of 0.503 square meters (m^2) at a spray height of 18 inches (43 cm) above average plant canopy height. Control plants were sprayed in the same manner with the solvent blank. The treated plants and control plants were placed in a greenhouse as described above and watered by sub-irrigation to prevent wash-off of the test compounds. After 20-22 days, the condition of the test plants, compared with that of the untreated plants, was determined visually and scored on a scale of 0 to 100 percent where 0 corresponds to no injury and 100 corresponds to complete kill and are presented as indicated in Table 4. By applying the well-accepted probit analysis as described by J. Berkson in Journal of the American Statistical Society, 48, 565 (1953) and by D. Finney in “Probit Analysis” Cambridge University Press (1952), herbicidal injury of a specific compound at various rates can be used to calculate GR20, GR50, GR80 and GR90 values, which are defined as growth reduction factors that correspond to the effective dose of herbicide required to provide plant growth reduction (GR) of 20 percent, 50 percent, 80 percent and 90 percent, respectively. Probit analysis was applied to data collected from multiple dose rates of individual compounds utilizing the procedures explained in the following examples. The data for some of the dose rates and analysis of all of the dose rates are captured in the following tables.
# [1] = BRAPP (broadleaf signalgrass, Brachiaria platyphylla), read-out: Visual Growth Reduction (%) 21 Days After Application BRAPP
# [2] = CYPDI (small-flower flatsedge, Cyperus difformis), read-out: Visual Growth Reduction (%) 21 Days After Application CYPDI
# [3] = CYPES (yellow nutsedge, Cyperus esculentus), read-out: Visual Growth Reduction (%) 21 Days After Application CYPES
# [4] = CYPIR (rice flatsedge, Cyperus iria), read-out: Visual Growth Reduction (%) 21 Days After Application CYPIR
# [5] = DIGSA (large crabgrass, Digitaria sanguinalis), read-out: Visual Growth Reduction (%) 21 Days After Application DIGSA
# [6] = ECHCG (barnyardgrass, Echinochloa crus-galli), read-out: Visual Growth Reduction (%) 21 Days After Application ECHCG
# [7] = ECHCO (junglerice, Echinochloa colonum), read-out: Visual Growth Reduction (%) 21 Days After Application ECHCO
# [8] = LEFCH (Chinese sprangletop, Leptochloa chinensis), read-out: Visual Growth Reduction (%) 21 Days After Application LEFCH
# [9] = ORYSJ (Oryza sativa, rice crop), read-out: Visual Growth Reduction (%) 21 Days After Application ORYSJ
# [10] = ORYSK (Oryza sativa, rice crop), read-out: Visual Growth Reduction (%) 21 Days After Application ORYSK
# [11] = SCPJU (Japanese bulrush, Schoenoplectus juncoides Roxb.), read-out: Visual Growth Reduction (%) 21 Days After Application SCPJU
# [12] = SEBEX (hemp sesbania, Sesbania exaltata), read-out: Visual Growth Reduction (%) 21 Days After Application SEBEX
smiles,measurement,setting,value
COc1c(C(=O)O)nc(-c2ccc3c(c2)OC(F)(F)O3)c(F)c1N [Compound 25],GR50 BRAPP,"BRAPP (Brachiaria platyphylla), probit analysis, dose for 50 percent growth reduction",4 g ai/ha
same,GR80 BRAPP,"BRAPP (Brachiaria platyphylla), probit analysis, dose for 80 percent growth reduction",9 g ai/ha
same,GR90 BRAPP,"BRAPP (Brachiaria platyphylla), probit analysis, dose for 90 percent growth reduction",13 g ai/ha
same,GR50 CYPDI,"CYPDI (Cyperus difformis), probit analysis, dose for 50 percent growth reduction",0.04 g ai/ha
same,GR80 CYPDI,"CYPDI (Cyperus difformis), probit analysis, dose for 80 percent growth reduction",1 g ai/ha
same,GR90 CYPDI,"CYPDI (Cyperus difformis), probit analysis, dose for 90 percent growth reduction",2 g ai/ha
same,GR50 CYPES,"CYPES (Cyperus esculentus), probit analysis, dose for 50 percent growth reduction",0.04 g ai/ha
same,GR80 CYPES,"CYPES (Cyperus esculentus), probit analysis, dose for 80 percent growth reduction",1 g ai/ha
same,GR90 CYPES,"CYPES (Cyperus esculentus), probit analysis, dose for 90 percent growth reduction",1 g ai/ha
same,GR50 CYPIR,"CYPIR (Cyperus iria), probit analysis, dose for 50 percent growth reduction",2 g ai/ha
same,GR80 CYPIR,"CYPIR (Cyperus iria), probit analysis, dose for 80 percent growth reduction",5 g ai/ha
same,GR90 CYPIR,"CYPIR (Cyperus iria), probit analysis, dose for 90 percent growth reduction",9 g ai/ha
same,GR50 DIGSA,"DIGSA (Digitaria sanguinalis), probit analysis, dose for 50 percent growth reduction",27 g ai/ha
same,GR80 DIGSA,"DIGSA (Digitaria sanguinalis), probit analysis, dose for 80 percent growth reduction",2530 g ai/ha
same,GR90 DIGSA,"DIGSA (Digitaria sanguinalis), probit analysis, dose for 90 percent growth reduction",27000 g ai/ha
same,GR50 ECHCG,"ECHCG (Echinochloa crus-galli), probit analysis, dose for 50 percent growth reduction",0.025 g ai/ha
same,GR80 ECHCG,"ECHCG (Echinochloa crus-galli), probit analysis, dose for 80 percent growth reduction",1 g ai/ha
same,GR90 ECHCG,"ECHCG (Echinochloa crus-galli), probit analysis, dose for 90 percent growth reduction",3 g ai/ha
same,GR50 ECHCO,"ECHCO (Echinochloa colonum), probit analysis, dose for 50 percent growth reduction",2 g ai/ha
same,GR80 ECHCO,"ECHCO (Echinochloa colonum), probit analysis, dose for 80 percent growth reduction",4 g ai/ha
same,GR90 ECHCO,"ECHCO (Echinochloa colonum), probit analysis, dose for 90 percent growth reduction",6 g ai/ha
same,GR50 LEFCH,"LEFCH (Leptochloa chinensis), probit analysis, dose for 50 percent growth reduction",175 g ai/ha
same,GR80 LEFCH,"LEFCH (Leptochloa chinensis), probit analysis, dose for 80 percent growth reduction",463 g ai/ha
same,GR90 LEFCH,"LEFCH (Leptochloa chinensis), probit analysis, dose for 90 percent growth reduction",770 g ai/ha
same,GR20 ORYSJ,"ORYSJ (Oryza sativa, rice crop), probit analysis, dose for 20 percent growth reduction",1 g ai/ha
same,GR20 ORYSK,"ORYSK (Oryza sativa, rice crop), probit analysis, dose for 20 percent growth reduction",3 g ai/ha
same,GR50 SCPJU,"SCPJU (Schoenoplectus juncoides Roxb.), probit analysis, dose for 50 percent growth reduction",0.0001 g ai/ha
same,GR80 SCPJU,"SCPJU (Schoenoplectus juncoides Roxb.), probit analysis, dose for 80 percent growth reduction",0.0001 g ai/ha
same,GR90 SCPJU,"SCPJU (Schoenoplectus juncoides Roxb.), probit analysis, dose for 90 percent growth reduction",0.0001 g ai/ha
same,GR50 SEBEX,"SEBEX (Sesbania exaltata), probit analysis, dose for 50 percent growth reduction",19 g ai/ha
same,GR80 SEBEX,"SEBEX (Sesbania exaltata), probit analysis, dose for 80 percent growth reduction",26 g ai/ha
same,GR90 SEBEX,"SEBEX (Sesbania exaltata), probit analysis, dose for 90 percent growth reduction",30 g ai/ha
same,pest or weed control at 17.5 g/ha,[1],95 to 100%
same,pest or weed control at 35 g/ha,[1],95 to 100%
same,pest or weed control at 70 g/ha,[1],95 to 100%
same,pest or weed control at 17.5 g/ha,[2],95 to 100%
same,pest or weed control at 35 g/ha,[2],95 to 100%
same,pest or weed control at 70 g/ha,[2],95 to 100%
same,pest or weed control at 17.5 g/ha,[3],95 to 100%
same,pest or weed control at 35 g/ha,[3],95 to 100%
same,pest or weed control at 70 g/ha,[3],95 to 100%
same,pest or weed control at 17.5 g/ha,[4],85 to 94%
same,pest or weed control at 35 g/ha,[4],95 to 100%
same,pest or weed control at 70 g/ha,[4],95 to 100%
same,pest or weed control at 17.5 g/ha,[5],30 to 44%
same,pest or weed control at 35 g/ha,[5],60 to 74%
same,pest or weed control at 70 g/ha,[5],60 to 74%
same,pest or weed control at 17.5 g/ha,[6],95 to 100%
same,pest or weed control at 35 g/ha,[6],95 to 100%
same,pest or weed control at 70 g/ha,[6],95 to 100%
same,pest or weed control at 17.5 g/ha,[7],95 to 100%
same,pest or weed control at 35 g/ha,[7],95 to 100%
same,pest or weed control at 70 g/ha,[7],95 to 100%
same,pest or weed control at 17.5 g/ha,[8],0 to 29%
same,pest or weed control at 35 g/ha,[8],0 to 29%
same,pest or weed control at 70 g/ha,[8],0 to 29%
same,pest or weed control at 17.5 g/ha,[9],85 to 94%
same,pest or weed control at 35 g/ha,[9],95 to 100%
same,pest or weed control at 70 g/ha,[9],95 to 100%
same,pest or weed control at 17.5 g/ha,[10],85 to 94%
same,pest or weed control at 35 g/ha,[10],85 to 94%
same,pest or weed control at 70 g/ha,[10],95 to 100%
same,pest or weed control at 17.5 g/ha,[11],95 to 100%
same,pest or weed control at 35 g/ha,[11],95 to 100%
same,pest or weed control at 70 g/ha,[11],95 to 100%
same,pest or weed control at 17.5 g/ha,[12],0 to 29%
same,pest or weed control at 35 g/ha,[12],95 to 100%
same,pest or weed control at 70 g/ha,[12],95 to 100%
